Measured values reported in ChEMBL document CHEMBL4390710, “Synthesis and biological evaluation of novel 4,7-dihydroxycoumarin derivatives as anticancer agents” (Bioorg Med Chem Lett, 2019).

Legend:
A549 = experiment: Cytotoxicity against human A549 cells measured after 24 hrs by MTT assay; assay type: functional, cell-based
HeLa = experiment: Cytotoxicity against human HeLa cells measured after 24 hrs by MTT assay; assay type: functional, cell-based; parameters: unit not given here
SK-N-SH = experiment: Cytotoxicity against human SK-N-SH cells measured after 24 hrs by MTT assay; assay type: functional, cell-based
MCF7 [1] = experiment: Cytotoxicity against human MCF7 cells measured after 24 hrs by MTT assay; assay type: functional, cell-based
NRK-49F = experiment: Cytotoxicity against rat NRK-49F cells measured after 24 hrs by MTT assay; assay type: functional, cell-based
MCF7 [2] = experiment: Cell cycle arrest in human MCF7 cells assessed as accumulation at G1-phase at 4 uM measured after 24 hrs by propidium iodide staining based flow cytometry (reference value: 57%); assay type: functional
MCF7 [3] = experiment: Cell cycle arrest in human MCF7 cells assessed as accumulation at S-phase at 4 uM measured after 24 hrs by propidium iodide staining based flow cytometry (reference value: 14.9%); assay type: functional
MCF7 [4] = experiment: Cell cycle arrest in human MCF7 cells assessed as accumulation at G2/M-phase at 4 uM measured after 24 hrs by propidium iodide staining based flow cytometry (reference value: 13.8%); assay type: functional
MCF7 [5] = experiment: Cell cycle arrest in human MCF7 cells assessed as accumulation at subG0-phase at 4 uM measured after 24 hrs by propidium iodide staining based flow cytometry (reference value: 13.9%); assay type: functional
MCF7 [6] = experiment: Cell cycle arrest in human MCF7 cells assessed as accumulation at G2/M-phase at 4 uM measured after 24 hrs by propidium iodide staining based flow cytometry relative to control; assay type: functional
[7] = Inhibition of goat brain tubulin polymerization; parameters: species or system Capra hircus

Compound	IC50 (A549) [µmol]	IC50 (HeLa)	IC50 (SK-N-SH) [µmol]	IC50 (MCF7 [1]) [µmol]	IC50 (NRK-49F) [µmol]	Activity (MCF7 [2])	Activity (MCF7 [3]) [%]	Activity (MCF7 [4]) [%]	Activity (MCF7 [5])	fold change (FC) (MCF7 [6])	IC50 [7] [µM]
C/C(=N\NC(=O)/C(C#N)=C/c1ccc([N+](=O)[O-])cc1)c1c(O)c2ccc(O)cc2oc1=O	9.64	8.36	10.26	8.2	43.22						
C/C(=N\NC(=O)/C(C#N)=C/c1ccc(Br)cc1)c1c(O)c2ccc(O)cc2oc1=O	11.43	10.56	12.05	9.85	49.64						
C/C(=N\NC(=O)/C(C#N)=C/c1ccccc1[N+](=O)[O-])c1c(O)c2ccc(O)cc2oc1=O	11.35	10.31	12.26	9.18	68.59						
COc1ccc(/C=C(\C#N)C(=O)N/N=C(\C)c2c(O)c3ccc(O)cc3oc2=O)cc1OC	14.32	13.52	21.53	14.35	45.28						
COc1cc(/C=C(\C#N)C(=O)N/N=C(\C)c2c(O)c3ccc(O)cc3oc2=O)ccc1O	12.63	10.46	14.35	13.65	55.42						
COc1cccc2c1C(=O)c1c(O)c3c(c(O)c1C2=O)C[C@@](O)(C(=O)CO)C[C@@H]3O[C@H]1C[C@H](N)[C@H](O)[C@H](C)O1 [DOXORUBICIN]	6.22		6.42	9.86	24.22						
C/C(=N\NC(=O)/C(C#N)=C/c1cccc(Br)c1)c1c(O)c2ccc(O)cc2oc1=O	22.15	24.28	31.28	19.64	59.39						
C/C(=N\NC(=O)/C(C#N)=C/c1ccc(N(C)C)cc1)c1c(O)c2ccc(O)cc2oc1=O	4.31	5.14	6.09	3.42	53.41	22.7 - 22.8%	22.6	45.3	8.5 - 10.6%	4	6.19
COc1cc(/C=C(\C#N)C(=O)N/N=C(\C)c2c(O)c3ccc(O)cc3oc2=O)cc(OC)c1OC	15.32	18.46	14.61	11.34	55.34						
C/C(=N\NC(=O)/C(C#N)=C/c1ccc(O)cc1)c1c(O)c2ccc(O)cc2oc1=O	6.23	6.02	8.12	7.32	61.31						
C/C(=N\NC(=O)/C(C#N)=C/c1ccccc1Cl)c1c(O)c2ccc(O)cc2oc1=O	14.23	11.78	14.02	8.88	55.89						
C/C(=N\NC(=O)/C(C#N)=C/c1cccc([N+](=O)[O-])c1)c1c(O)c2ccc(O)cc2oc1=O	21.9	24.64	28.26	16.35	46.53						
COc1ccc(/C=C(\C#N)C(=O)N/N=C(\C)c2c(O)c3ccc(O)cc3oc2=O)cc1	8.15	7.85	9.46	8.94	96.1						
C/C(=N\NC(=O)/C(C#N)=C/c1ccccc1)c1c(O)c2ccc(O)cc2oc1=O	14.82	15.75	13.52	19.22	55.45						
COC(=O)Nc1nc2cc(C(=O)c3cccs3)ccc2[nH]1 [NOCODAZOLE]						21.6%	22	39.3	16.4 - 16.8%		
